Reference: patent publication US9822115B2, “Nitrogen containing compounds and their use as antibacterial agents” (WOCKHARDT LIMITED, priority 2014, dated 2017)
In brackets after ≈: the same amount, converted by molar mass. Counter-ions that a name gives are not always drawn. Like-named read-outs stand apart in the source and are kept apart here.

Legend:
[1] = molecular target: T1, Class A beta-lactamase, K. pneumoniae ATCC 700603 (SHV 18) (Klebsiella pneumoniae, UniProt P0AD64, E235K/G234A/R39S); assay: biochemical
T1 construct: preincubated mixture of crude enzyme and the agents; endogenous in cells; host or cells: K. pneumoniae ATCC 700603
T1 sequence (P0AD64 22-286 R39S/G234A/E235K): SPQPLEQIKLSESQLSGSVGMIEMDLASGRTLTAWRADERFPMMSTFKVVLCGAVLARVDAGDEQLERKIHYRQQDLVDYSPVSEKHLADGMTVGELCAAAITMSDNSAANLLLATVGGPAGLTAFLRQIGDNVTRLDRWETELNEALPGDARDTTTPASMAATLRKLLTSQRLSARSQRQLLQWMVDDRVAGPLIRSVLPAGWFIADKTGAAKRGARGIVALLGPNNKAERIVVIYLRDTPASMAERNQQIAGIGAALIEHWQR
Method: (§1) Determination of enzyme inhibition activity: Concentration of the inhibitor required to inhibit 50% of enzymatic activity was measured by adding a chromogenic substrate, Nitrocefin (100 uM, 5 min) to the preincubated mixture of crude enzyme and the agents (37° C., 10 min). Absorbance was measured at 485 nm by UV-spectrophotometer. The IC50 was calculated by plotting absorbance against concentration through Sigmoidal dose response curve using Graph Pad software.
(§2) The enzyme inhibition was expressed as IC50.

[2] = tested on: K. pneomoniae S48 (NDM, SHV, TEM); assay: Antibacterial activity, MIC by agar dilution (CLSI); format: cell-based, K. pneumoniae; conditions: Klebsiella pneumoniae
Method: (§3) The biological activity of representative compounds according to the invention against various bacterial strains was investigated. In a typical study, overnight grown bacterial cultures were diluted appropriately and inoculated on the agar media containing doubling dilutions of the test compounds. Observations for growth or no growth was performed after 16-20 hours of incubation at 35±2° C. in the ambient air. The overall procedure was performed as per Clinical and Laboratory Standards Institute (CLSI) recommendations, (Clinical and Laboratory Standards Institute (CLSI), Performance Standards for Antimicrobial Susceptibility Testing, 20th Informational Supplement, M07-A9, Volume 32, No. 2, 2012). Molten Mueller Hinton Agar (BD, USA) containing serial dilutions of each antibacterial agent were poured on to the plates and allowed to solidify. Appropriate suspensions from the freshly grown cultures were prepared in normal saline so that about 10^4 CFU/spot of the organism was delivered on to the drug containing agar plates using automated multipoint inoculator (Mast, UK). The plates were incubated in Biochemical oxygen demand (BOD) incubator at 37° C. for 18 hours and then examined for growth.
(§4) The strains selected for study included E. coli NCTC 13353 producing CTX-M15 and OXA-1 beta-lactamase enzymes; K. pneumoniae H521 producing KPC, SHV, TEM beta-lactamase enzymes; and K. pneumoniae S48 producing NDM, SHV, TEM beta-lactamase enzymes. The activities are expressed as Minimum Inhibitory Concentrations (MICs) (mcg/ml).

[3] = tested on: E. coli NCTC 13353 (CTX-M15, OXA-1); assay: as above; format: cell-based; conditions: Escherichia coli
Method: as §3
as §4, with “Table 2 details the antibacterial activity of representative compounds according to invention, against various Multi Drug Resistant (MDR) Gram-negative bacterial strains. The strains” for “The strains”

[4] = tested on: K. pneumoniae H521 (KPC, SHV, TEM); assay: as above; format: cell-based; conditions: Klebsiella pneumoniae
Method: as §3, §4

[5] = molecular target: T2, Class D beta-lactamase, A. baumannii NCTC 13301 (OXA 23) (Acinetobacter baumannii, UniProt Q9L4P2); assay: Beta-lactamase enzyme inhibition (nitrocefin, crude enzyme); format: biochemical
T2 construct: preincubated mixture of crude enzyme and the agents; endogenous in cells; host or cells: A. baumannii NCTC 13301
T2 sequence (Q9L4P2 18-273): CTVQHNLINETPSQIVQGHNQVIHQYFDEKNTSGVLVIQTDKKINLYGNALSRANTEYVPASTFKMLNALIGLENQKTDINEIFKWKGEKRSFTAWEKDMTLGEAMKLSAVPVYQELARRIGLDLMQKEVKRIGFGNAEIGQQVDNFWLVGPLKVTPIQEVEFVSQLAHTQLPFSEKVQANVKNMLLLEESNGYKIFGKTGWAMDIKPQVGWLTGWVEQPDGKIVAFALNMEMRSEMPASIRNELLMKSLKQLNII
Method: as §1, §2

[6] = Class D A. baumannii NCTC 13301 (OXA 23), read-out: Beta-lactamase enzyme inhibition IC50
[7] = 18 h, Table 2, K. pneomoniae S48 (NDM, SHV, TEM), read-out: MIC
[8] = NCTC13353, 18 h, Table 2, E. Coli NCTC 13353 (CTX-M15, OXA-1), read-out: MIC
[9] = 18 h, Table 2, K. pneumoniae H521 (KPC, SHV, TEM), read-out: MIC

SMILES | IC50 [1] [nM] | IC50 [5, 6] [nM] | MIC [2, 7] [µg/mL] | MIC [3, 8] [µg/mL] | MIC [4, 9] [µg/mL] | also measured
NC(=O)[C@@H]1CC[C@@H]2CN1C(=O)N2OS(=O)(=O)O [Avibactam, avibactam, reference compound] | 98 | – | – | – | – | –
O=C(Cc1ccccc1)NNC(=O)[C@@H]1CC[C@@H]2CN1C(=O)N2OS(=O)(=O)O [Example 4] | 19 | 416 | – | – | – | MIC ([2]; 18 h): 2 µg/mL (≈ 5.02 µM); MIC ([3]; NCTC13353, 18 h): 1 µg/mL (≈ 2.51 µM); MIC ([4]; 18 h): > 32 µg/mL
O=C(CCc1ccccc1)NNC(=O)[C@@H]1CC[C@@H]2CN1C(=O)N2OS(=O)(=O)O [Example 5] | 9 | 600 | 8 (≈ 19.4 µM) | 8 (≈ 19.4 µM) | > 32 | –
O=C(CCCc1ccccc1)NNC(=O)[C@@H]1CC[C@@H]2CN1C(=O)N2OS(=O)(=O)O [Example 6, sodium salt of (2S,5R)-sulfuric acid mono-[2-(N′-(4-phenyl-butanoyl)-hydrazinocarbonyl)-7-oxo-1,6-diaza-bicylo[3.2.1]oct-6-yl]ester] | – | 207 | 32 | 16 | > 32 | –
O=C(Cc1ccccn1)NNC(=O)[C@@H]1CC[C@@H]2CN1C(=O)N2OS(=O)(=O)O [Example 8, Sodium salt of (2S,5R)-Sulfuric acid mono-[2-(N′-(pyridine-2-yl-acetyl)-hydrazinocarbonyl)-7-oxo-1,6-diaza-bicyclo[3.2.1]oct-6-yl] ester] | 25 | 466 | – | – | – | MIC ([2]; Table 2, K. pneomoniae S48 (NDM, SHV, TEM), read-out: MIC): 0.5 µg/mL; MIC ([3]; NCTC13353, Table 2, E. Coli NCTC 13353 (CTX-M15, OXA-1), read-out: MIC): 0.5 µg/mL; MIC ([4]; Table 2, K. pneumoniae H521 (KPC, SHV, TEM), read-out: MIC): 2 µg/mL
O=C(Cc1ccc(Cl)cc1)NNC(=O)[C@@H]1CC[C@@H]2CN1C(=O)N2OS(=O)(=O)O [Example 9, sodium salt of (2S,5R)-sulfuric acid mono-[2-(N′-(4-chlorophenyl-acetyl)-hydrazinocarbonyl)-7-oxo-1,6-diaza-bicyclo[3.2.1]oct-6-yl]ester] | – | 173 | – | – | – | MIC ([2]; 18 h): 1 µg/mL; MIC ([3]; NCTC13353, 18 h): 1 µg/mL; MIC ([4]; 18 h): 4 µg/mL
N#Cc1ccc(CC(=O)NNC(=O)[C@@H]2CC[C@@H]3CN2C(=O)N3OS(=O)(=O)O)cc1 [Example 10, sodium salt of (2S,5R)-sulfuric acid mono-[2-(N′-(4-cyanophenyl-acetyl)-hydrazinocarbonyl)-7-oxo-1,6-diaza-bicyclo[3.2.1]oct-6-yl]ester] | 162 | 805 | 1 | 1 | 4 | –
CN(C)c1ccc(CC(=O)NNC(=O)[C@@H]2CC[C@@H]3CN2C(=O)N3OS(=O)(=O)O)cc1 [Example 13, sodium salt of (2S,5R)-sulfuric acid mono-[2-(N′-(4-N,N-dimethylaminophenyl-acetyl)-hydrazinocarbonyl)-7-oxo-1,6-diaza-bicyclo[3.2.1]oct-6-yl]ester] | 62 | 629 | 8 | 8 | > 32 | –
COc1ccc(CC(=O)NNC(=O)[C@@H]2CC[C@@H]3CN2C(=O)N3OS(=O)(=O)O)cc1 [Example 14, sodium salt of (2S,5R)-sulfuric acid mono-[2-(N′-(4-methoxyphenyl-acetyl)-hydrazinocarbonyl)-7-oxo-1,6-diaza-bicyclo[3.2.1]oct-6-yl]ester] | – | 105 | 1 | 1 | 8 | –
CCOc1ccccc1CC(=O)NNC(=O)[C@@H]1CC[C@@H]2CN1C(=O)N2OS(=O)(=O)O [Example 15, sodium salt of (2S,5R)-sulfuric acid mono-[2-(N′-(2-ethoxyphenyl-acetyl)-hydrazinocarbonyl)-7-oxo-1,6-diaza-bicyclo[3.2.1]oct-6-yl]ester] | 49 | 210 | > 32 | > 32 | > 32 | –
O=C(Cc1ccc(O)cc1F)NNC(=O)[C@@H]1CC[C@@H]2CN1C(=O)N2OS(=O)(=O)O [Example 18, sodium salt of (2S,5R)-sulfuric acid mono-[2-(N′-(2-fluoro-4-hydroxyphenyl-acetyl)-hydrazinocarbonyl)-7-oxo-1,6-diaza-bicyclo[3.2.1]oct-6-yl]ester] | 154 | 146 | 0.5 | 0.5 | 2 | –
O=C(Cc1ccccc1O)NNC(=O)[C@@H]1CC[C@@H]2CN1C(=O)N2OS(=O)(=O)O [Example 19, sodium salt of (2S,5R)-sulfuric acid mono-[2-(N′-(2-hydroxyphenyl-acetyl)-hydrazinocarbonyl)-7-oxo-1,6-diaza-bicyclo[3.2.1]oct-6-yl]ester] | 13 | 677 | 2 | 1 | 2 | –
O=C(Cc1cccc(O)c1)NNC(=O)[C@@H]1CC[C@@H]2CN1C(=O)N2OS(=O)(=O)O [Example 20, sodium salt of (2S,5R)-sulfuric acid mono-[2-(N′-(3-hydroxyphenyl-acetyl)-hydrazinocarbonyl)-7-oxo-1,6-diaza-bicyclo[3.2.1]oct-6-yl]ester] | 12 | 249 | – | – | – | MIC ([2]; 18 h): 0.5 µg/mL; MIC ([3]; NCTC13353, 18 h): 0.5 µg/mL; MIC ([4]; 18 h): 1 µg/mL
CC(C)(C)C(=O)Oc1ccc(CC(=O)NNC(=O)[C@@H]2CC[C@@H]3CN2C(=O)N3OS(=O)(=O)O)cc1 [Example 22, sodium salt of 2,2-dimethyl-propionic acid 4-{2-oxo-2-[N′-((2S,5R)-7-oxo-6-sulphooxy-1,6-diaza-bicyclo[3.2.1]octane-2-carbonyl)-hydrazino]ethyl}-phenyl ester] | 25 | 973 | 32 | 16 | 32 | –
CC(C)(C)OC(=O)CC(=O)Oc1ccc(CC(=O)NNC(=O)[C@@H]2CC[C@@H]3CN2C(=O)N3OS(=O)(=O)O)cc1 [Example 26, sodium salt of (2S,5R)-malonic acid tert-butyl ester 4-{2-oxo-2-[N′-(7-oxo-6-sulphooxy-1,6-diaza-bicyclo[3.2.1]octane-2-carbonyl)-hydrazino]ethyl}-phenyl ester] | 25 | 370 | 2 | 2 | 4 | –
O=C(Cc1ccc(OC(=O)NC2CCCCC2)cc1)NNC(=O)[C@@H]1CC[C@@H]2CN1C(=O)N2OS(=O)(=O)O [Example 28, sodium salt of (2S,5R)-cyclohexyl-carbamic acid 4-{2-oxo-2-[N′-(7-oxo-6-sulphooxy-1,6-diaza-bicyclo[3.2.1]octane-2-carbonyl)-hydrazino]ethyl}-phenyl ester] | 8 | – | – | – | – | MIC ([2]; 18 h): 16 µg/mL; MIC ([3]; NCTC13353, 18 h): 8 µg/mL; MIC ([4]; 18 h): 32 µg/mL; IC50 [5]: 243 nM
CC(C)[C@H](NC(=O)Oc1ccc(CC(=O)NNC(=O)[C@@H]2CC[C@@H]3CN2C(=O)N3OS(=O)(=O)O)cc1)C(=O)OC(C)(C)C [Example 29, sodium salt of (S)-3-methyl-2-(4-{2-oxo-2-[N′-((2S,5R)-7-oxo-6-sulphooxy-1,6-diaza-bicyclo[3.2.1]-octane-2-carbonyl)-hydrazino]-ethyl}-phenoxycarbonylamino)-butyric acid tert-butyl ester] | 327 | – | – | – | – | MIC [2]: 4 µg/mL; MIC ([3]; NCTC13353): 4 µg/mL; MIC [4]: 16 µg/mL; IC50 [5]: 2850 nM
